Assay results taken from publication PMC3653948, “PDZ Domain-Mediated Interactions of G Protein-Coupled Receptors with Postsynaptic Density Protein 95: Quantitative Characterization of Interactions” (PLoS ONE, 2013).
Read-outs that look alike come from different tables or passages of the source. Peptide text beside a SMILES is read from it.

Tests used:
[1] = target: T1, PSD-95 PDZ3 (Homo sapiens, UniProt P78352); test: FP competition assay, PSD-95 PDZ3 (probe Cy5-CRIPT); assay type: binding; settings: read-out: K i PDZ3
T1 construct: made in house; host or cells: E. coli One Shot BL21 Star (DE3)
Protocol: We used a competition set-up, where a constant concentration of isolated PSD-95 PDZ domain and a labeled reference ligand was titrated with unlabeled peptides from the GPCR C-tail library, typically within a 1–512 µM concentration range, and the resulting curves were fitted to obtain the IC50, which was used to calculate the K i (Figure 1). Three Cy5-labeled peptides with well-documented interactions with PSD-95 were used as reference ligands for the competition assay: Cy5-KIF1Bα was used for PDZ1 [20], Cy5-GluN2B (formerly known as NR2B) was used for PDZ2 and PDZ1-2 [21], and Cy5-CRIPT was used for PDZ3 [22] (Table S1). Competition with unlabeled versions of the reference ligands was used to validate the FP assay by comparison with the literature (Table S2).
FP measurements were performed in black, flat bottom 384-well NBS microplates (Corning) on a Synergy H4 microplatereader (BioTek Instruments) equipped with a 620/40 nm excitation filter, a 680/30 nm emission filter, and a 660 nm dichroic mirror. Polarization values were corrected with blank samples and samples with fluorescent probe alone. At least 10 data points were measured for each curve, and each data point was measured in triplicate. 25 nM Cy5-labeled probe was used for each assay: Cy5-KIF1Bα for PDZ1, Cy5-GluN2B for PDZ2 and PDZ1-2, and Cy5-CRIPT for PDZ3. All FP measurements were performed in a buffer containing 10 mM HEPES pH 7.4, 150 mM NaCl, and 1% BSA and incubated at least 15 min at room temperature before reading. The signal was stable for more than an hour, showing that the reaction was at equilibrium.
Saturation binding curves were used to determine the functionality of the PDZ domains by comparison with literature values and to calculate K i values from competition curves. Saturation binding curves were performed by mixing probe with a twofold dilution series of PDZ protein in a total volume of 30 µl. The K d was determined by fitting to a 1∶1 binding model: Y = Ymax × X/(X+K d).
For the competition binding curves, probe was mixed with a constant concentration of PDZ protein corresponding to the K d and a twofold dilution series of unlabeled peptide in a total volume of 30 µl. The baseline was determined using a sample containing only probe. The IC50 was determined by fitting to a 1∶1 binding model: Y = Ymax − Ymax × X/(X+IC50). The K i was calculated from the IC50 and from the K d for the interaction between the PDZ protein and the probe as described previously.

[2] = target: T2, PSD-95 PDZ2 (Homo sapiens, UniProt P78352); test: FP competition assay, PSD-95 PDZ2 (probe Cy5-GluN2B); assay type: binding; settings: read-out: K i PDZ2
T2 construct: PDZ2 (aa 155–249); made in house; host or cells: E. coli One Shot BL21 Star (DE3)
Protocol: (§1) FP measurements were performed in black, flat bottom 384-well NBS microplates (Corning) on a Synergy H4 microplatereader (BioTek Instruments) equipped with a 620/40 nm excitation filter, a 680/30 nm emission filter, and a 660 nm dichroic mirror. Polarization values were corrected with blank samples and samples with fluorescent probe alone. At least 10 data points were measured for each curve, and each data point was measured in triplicate. […] All FP measurements were performed in a buffer containing 10 mM HEPES pH 7.4, 150 mM NaCl, and 1% BSA and incubated at least 15 min at room temperature before reading. The signal was stable for more than an hour, showing that the reaction was at equilibrium.
(§2) For the competition binding curves, probe was mixed with a constant concentration of PDZ protein corresponding to the K d and a twofold dilution series of unlabeled peptide in a total volume of 30 µl. The baseline was determined using a sample containing only probe. The IC50 was determined by fitting to a 1∶1 binding model: Y = Ymax − Ymax × X/(X+IC50). The K i was calculated from the IC50 and from the K d for the interaction between the PDZ protein and the probe as described previously [38].

[3] = target: T3, PSD-95 PDZ1 (Homo sapiens, UniProt P78352); test: FP competition assay, PSD-95 PDZ1 (probe Cy5-KIF1Bα); assay type: binding
T3 construct: PSD-95 PDZ1 (aa 61–151); made in house; host or cells: E. coli One Shot BL21 Star (DE3)
Protocol: as §1, §2

[4] = target: T3, PSD-95 PDZ1; test: SPR steady-state binding to immobilized PSD-95 PDZ1
Source text: To confirm the affinities measured by FP using an orthogonal method and to get information about the kinetics of the GPCR–PDZ interactions, we used SPR. This label-free, surface sensitive technique measures the binding of a ligand to an immobilized protein as a function of time based on refractive index changes.
For each of the PSD-95 PDZ domains, we determined the K d and the stability of the complexes for selected GPCR C-tail peptides. The residence time τ ( = 1/k d) was used as a convenient measure of the stability of the complexes. […] The K d determined from the steady-state responses of a range of C-tail peptide concentrations (Figure 2B and Table S4) correlated well with the K i values obtained by FP (Figure S1).
A Biacore X100 (GE Healthcare) SPR instrument equilibrated to 25.0°C and equipped with a Sensor Chip CM5 (for PDZ1 and PDZ2) or CM4 (for PDZ3) (GE Healthcare) was used for the SPR measurements. The running buffer was HBS-EP+ (10 mM HEPES pH 7.4, 150 mM NaCl, 3 mM EDTA, 0.05% Surfactant P-20 (GE Healthcare)).
PDZ domains were immobilized by amine coupling at a flow rate of 5 µl/min on a surface activated by a 7 min injection of a 1∶1 mixture of 0.4 M 1-ethyl-3-(3-dimethylaminopropyl) carbodiimide (EDC) and 0.1 M N-hydroxysuccinimide (NHS). The remaining active groups were deactivated by a 7 min injection of 1 M ethanolamine HCl pH 8.5. 750 RU PDZ1, 780 RU PDZ2, and 410 RU PDZ3 were immobilized.
GPCR C-tail peptide samples were injected in increasing concentrations for 1 min with 1 min dissociation time at 30 µl/min. Reproducibility was tested by injecting the 20 µM sample again after the highest concentration sample. The binding curves were corrected by subtraction of buffer blanks and the response from a reference surface that was activated with EDC and NHS and deactivated with ethanolamine like the surface with immobilized PDZ domain. For peptides with a cysteine, 1 mM dithiothreitol (DTT) was added to the samples. Steady-state response curves were plotted from the responses 10 s before injection end. The K d was determined by fitting steady-state response curves to a 1∶1 binding model with a linear component to corrrect for low affinity binding, probably resulting from the immobilization: Y = Ymax × X/(X+K d)+B × X.

[5] = receptors binding to PDZ1 but not to PDZ2, read-out: K i PDZ1
[6] = 25 nM Cy5-KIF1Bα, 10 mM HEPES pH 7.4, 150 mM NaCl, 1% BSA, room temperature, at least 15 min, Ki ± fitting error, read-out: K i PDZ1

Row | Ki [1] | Ki [2] | Ki [3, 5] | Ki [3, 6] | Ki ([3]; 25 nM Cy5-KIF1Bα, 10 mM HEPES pH 7.4, 150 mM NaCl, 1% BSA, room temperature, mean Ki ± SEM from two or more independent experiments, read-out: K i PDZ1) | Kd [4] | Compound
1 | > 1000 µM | > 1000 µM | > 600 µM | – | – | – | CC(C)C[C@H](NC(=O)[C@@H](NC(=O)[C@H](CO)NC(=O)[C@H](CO)NC(=O)[C@H](CO)NC(=O)[C@H](CCC(N)=O)NC(=O)[C@H](CCCCN)NC(=O)[C@H](Cc1ccc(O)cc1)NC(=O)[C@H](CC(=O)O)NC(=O)[C@H](CCCNC(=N)N)NC(=O)[C@H](CCCNC(=N)N)NC(=O)[C@H](CC(=O)O)NC(=O)[C@@H](N)CC(=O)O)[C@@H](C)O)C(=O)O [mGlu1(a)] (H-DDRRDYKQSSSTL-OH)
2 | > 1000 µM | 230 ± 14 µM | – | 270 ± 22 µM | – | – | CC(C)[C@H](NC(=O)[C@H](CC(N)=O)NC(=O)[C@@H](NC(=O)[C@H](C)NC(=O)[C@H](CCC(=O)O)NC(=O)[C@@H](NC(=O)[C@H](Cc1ccccc1)NC(=O)[C@H](CO)NC(=O)[C@H](CC(=O)O)NC(=O)[C@H](CC(N)=O)NC(=O)[C@H](CCCNC(=N)N)NC(=O)[C@H](CC(=O)O)NC(=O)[C@H](CC(=O)O)NC(=O)[C@@H](N)Cc1ccc(O)cc1)[C@@H](C)O)[C@@H](C)O)C(=O)O [Y2] (H-YDDRNDSFTEATNV-OH)
3 | 370 ± 40 µM | 26 ± 0.4 µM | – | – | 100 ± 0.1 µM | 160 ± 12 µM | CC[C@H](C)[C@H](NC(=O)[C@H](CCCNC(=N)N)NC(=O)[C@H](CCC(=O)O)NC(=O)[C@H](CO)NC(=O)[C@@H](NC(=O)[C@@H](NC(=O)[C@H](CO)NC(=O)[C@H](CCCNC(=N)N)NC(=O)[C@H](CC(=O)O)NC(=O)[C@H](CC(=O)O)NC(=O)[C@@H](N)Cc1ccc(O)cc1)C(C)C)C(C)C)C(=O)N[C@@H](CO)C(=O)N[C@@H](CO)C(=O)N[C@H](C(=O)O)C(C)C [5-HTR2C] (H-YDDRSVVSERISSV-OH)
4 | > 1000 µM | > 1000 µM | > 600 µM | 610 ± 51 µM | – | – | CC[C@H](C)[C@H](NC(=O)[C@@H](NC(=O)[C@H](CC(C)C)NC(=O)[C@H](CC(N)=O)NC(=O)[C@H](CC(N)=O)NC(=O)[C@H](Cc1ccc(O)cc1)NC(=O)[C@H](CO)NC(=O)[C@@H](NC(=O)[C@H](Cc1ccc(O)cc1)NC(=O)[C@H](CCCCN)NC(=O)[C@H](CCCNC(=N)N)NC(=O)[C@H](CC(=O)O)NC(=O)[C@@H](N)CC(=O)O)C(C)C)C(C)C)C(=O)O [mGlu7(a)] (H-DDRKYVSYNNLVI-OH)
5 | > 1000 µM | 420 ± 52 µM | – | > 1000 µM | – | – | CC(C)[C@H](NC(=O)[C@H](CCC(N)=O)NC(=O)[C@H](CCCNC(=N)N)NC(=O)[C@H](CC(=O)O)NC(=O)[C@H](CC(=O)O)NC(=O)[C@@H](N)Cc1ccc(O)cc1)C(=O)N1CCC[C@H]1C(=O)N[C@@H](Cc1ccccc1)C(=O)N[C@H](C(=O)N[C@@H](CCCCN)C(=O)N[C@H](C(=O)N[C@H](C(=O)N[C@H](C(=O)N[C@@H](Cc1ccccc1)C(=O)O)[C@@H](C)O)[C@@H](C)O)[C@@H](C)O)[C@@H](C)O [SSTR4 Mouse] (H-YDDRQVPFTKTTTF-OH)
